According to patent US20250346585A1 (Alexion Pharmaceuticals, Inc., priority 2022, published 2025):
pIC50: −log10 of the molar value. Like-named read-outs stand apart in the source and are kept apart here.

Biological target: Human complement C1s enzyme (Homo sapiens (Human), UniProt P09871)
Assay: Human C1s enzyme assay
Type: biochemical
Conditions: read-out: IC50 (Stars)
Description: Human complement C1s enzyme (purified from human serum, Complement Technology, Inc.) at 1.16 nM final concentration was incubated with test compound at various concentrations for 5 min at room temperature in 50 mM Tris, 1 M NaCl, pH 7.5. A synthetic substrate Z-L-Lys-SBzl and DTNB (Ellman's reagent) were added to final concentrations of 100 μM each. Absorbance at 405 nm (A405) was recorded at 30 second intervals for 30 min using a microplate spectrophotometer. IC50 values were calculated by nonlinear regression of complement C1s reaction rates as a function of test compound concentration.

[1] = Human complement C1s enzyme 1.16 nM, substrate Z-L-Lys-SBzl 100 μM, assay of Example 3
[2] = Human C1s enzyme assay of Example 3

Chain of Human complement C1s enzyme (P09871 438-688 limits assumed): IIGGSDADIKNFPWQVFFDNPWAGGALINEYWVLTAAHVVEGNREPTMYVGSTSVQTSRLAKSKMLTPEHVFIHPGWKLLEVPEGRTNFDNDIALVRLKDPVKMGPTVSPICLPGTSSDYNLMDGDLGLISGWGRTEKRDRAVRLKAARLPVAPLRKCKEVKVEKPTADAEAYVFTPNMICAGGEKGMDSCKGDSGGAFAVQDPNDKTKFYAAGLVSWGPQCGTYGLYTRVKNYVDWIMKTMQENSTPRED
Chain of Human complement C1s enzyme (P09871 16-437 partner limits assumed): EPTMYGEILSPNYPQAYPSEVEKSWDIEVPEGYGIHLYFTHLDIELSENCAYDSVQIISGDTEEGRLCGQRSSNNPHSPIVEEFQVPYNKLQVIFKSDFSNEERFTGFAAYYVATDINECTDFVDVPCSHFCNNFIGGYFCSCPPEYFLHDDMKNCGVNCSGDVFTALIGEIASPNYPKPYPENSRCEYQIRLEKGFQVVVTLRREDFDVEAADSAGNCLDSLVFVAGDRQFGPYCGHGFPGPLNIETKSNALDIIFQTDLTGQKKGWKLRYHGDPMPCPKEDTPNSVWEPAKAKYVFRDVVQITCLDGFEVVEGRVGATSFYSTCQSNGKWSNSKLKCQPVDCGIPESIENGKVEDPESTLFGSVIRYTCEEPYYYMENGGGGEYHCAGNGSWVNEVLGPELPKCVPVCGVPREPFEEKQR

Structure (SMILES)	pIC50 [1]	pIC50 [2]
C[C@@H](NC(=O)[C@@H]1C[C@@H](OC(F)F)CN1C(=O)CNC(=O)c1ccc(Oc2ccc(F)cc2)cc1)c1cc(C(=N)N)cs1 [Compound 8, (2S,4R)—N—((R)-1-(4-carbamimidoylthiophen-2-yl)ethyl)-4-(difluoromethoxy)-1-((4-(4-fluorophenoxy)benzoyl)glycyl)pyrrolidine-2-carboxamide]		> 7.00
C[C@@H](NC(=O)[C@@H]1C[C@@H](C2OCCCO2)CN1C(=O)CNC(=O)c1ccc(Oc2ccc(F)cc2)cc1)c1cc(C(=N)N)cs1 (relative stereo) [Compound 160, (2S,4R*)—N—((R)-1-(4-carbamimidoylthiophen-2-yl)ethyl)-4-(1,3-dioxan-2-yl)-1-((4-(4-fluorophenoxy)benzoyl)glycyl)pyrrolidine-2-carboxamide]		> 7.00
N=C(N)c1csc(CNC(=O)[C@@H]2CC3(CN2C(=O)CNC(=O)c2ccc(-c4cc(F)cc(F)c4)cc2)OCCO3)c1 [Compound 189, (S)—N-((4-carbamimidoylthiophen-2-yl)methyl)-7-((3′,5′-difluoro-[1,1′-biphenyl]-4-carbonyl)glycyl)-1,4-dioxa-7-azaspiro[4.4]nonane-8-carboxamide]		> 7.00
C[C@@H](NC(=O)[C@@H]1C[C@](F)(COCCNC(=O)CC[C@H](NC(=O)CCCCCCCCCCCCCCCCC(=O)O)C(=O)O)CN1C(=O)CNC(=O)c1ccc2c(c1)-c1ccccc1C2(F)F)c1cc(C(=N)N)cs1 [Compound 133, 18-(((S)-4-((2-(((3R,5S)-5-(((R)-1-(4-carbamimidoylthiophen-2-yl)ethyl)carbamoyl)-1-((9,9-difluoro-9H-fluorene-3-carbonyl)glycyl)-3-fluoropyrrolidin-3-yl)methoxy)ethyl)amino)-1-carboxy-4-oxobutyl)amino)-18-oxooctadecanoic acid]		> 7.00
Nc1csc(-c2csc(CNC(=O)[C@@H]3CC4(CN3C(=O)CNC(=O)c3ccc(Oc5ccc(F)cc5)cc3)OCCO4)c2)n1 [Compound 184, (S)—N-((4-(4-aminothiazol-2-yl)thiophen-2-yl)methyl)-7-((4-(4-fluorophenoxy)benzoyl)glycyl)-1,4-dioxa-7-azaspiro[4.4]nonane-8-carboxamide]		< 6.00
COC[C@@]12C[C@@H]1N(C(=O)CNC(=O)c1ccc(Oc3ccc(F)cc3)cc1)[C@H](C(=O)N[C@H](C)c1ccc(C(=N)N)s1)C2 [Compound 38, (1S,3S,5R)—N—((R)-1-(5-carbamimidoylthiophen-2-yl)ethyl)-2-((4-(4-fluorophenoxy)benzoyl)glycyl)-5-(methoxymethyl)-2-azabicyclo[3.1.0]-hexane-3-carboxamide]		> 7.00
C[C@@H](NC(=O)[C@@H]1C[C@@H](S(C)(=O)=O)CN1C(=O)CNC(=O)c1ccc(Oc2ccc(F)cc2)cc1)c1cc(C(=N)N)cs1 [Compound 54, (2S,4R)—N—((R)-1-(4-carbamimidoylthiophen-2-yl)ethyl)-1-((4-(4-fluorophenoxy)benzoyl)glycyl)-4-(methylsulfonyl)pyrrolidine-2-carboxamide]		> 7.00
Cc1ccccc1[C@H]1C[C@@H](C(=O)N[C@H](C)c2cc(C(=N)N)cs2)N(C(=O)CNC(=O)c2ccc3c(c2)-c2ccccc2C3(F)F)C1 [Compound 119, (2S,4R)—N—((R)-1-(4-carbamimidoylthiophen-2-yl)ethyl)-1-((9,9-difluoro-9H-fluorene-3-carbonyl)glycyl)-4-(o-tolyl)pyrrolidine-2-carboxamide]		> 7.00
Cc1cc(-c2ccc(C(=O)NCC(=O)N3CC4(C[C@H]3C(=O)NCc3cc(C(=N)N)cs3)OCCO4)cc2)ccc1F [Compound 199, (S)—N-((4-carbamimidoylthiophen-2-yl)methyl)-7-((4′-fluoro-3′-methyl-[1,1′-biphenyl]-4-carbonyl)glycyl)-1,4-dioxa-7-azaspiro[4.4]nonane-8-carboxamide]	> 7.00	
Cc1cc(C(=O)NCC(=O)N2[C@H]3C[C@@]3(C)C[C@H]2C(=O)N[C@H](C)c2cc(C(=N)N)cs2)ccc1Oc1ccc(F)cc1 [Compound 27, (1S,3S,5S)—N—((R)-1-(4-carbamimidoylthiophen-2-yl)ethyl)-2-((4-(4-fluorophenoxy)-3-methylbenzoyl)glycyl)-5-methyl-2-azabicyclo[3.1.0]hexane-3-carboxamide]		> 7.00

More lines, now with the values ahead:

pIC50 [1]	pIC50 [2]	Structure (SMILES)
> 7.00		N=C(N)c1csc([C@@H](CO)NC(=O)[C@@H]2C[C@@H](OC(F)F)CN2C(=O)CNC(=O)c2ccc3c(c2)C(F)(F)c2ccccc2-3)c1 [Compound 396, (2S,4R)—N—((R)-1-(4-carbamimidoylthiophen-2-yl)-2-hydroxyethyl)-1-((9,9-difluoro-9H-fluorene-2-carbonyl)glycyl)-4-(difluoromethoxy) pyrrolidine-2-carboxamide]
> 7.00		C[C@@H](NC(=O)[C@@H]1CC2(CN1C(=O)CNC(=O)c1ccc3c(c1)Oc1ccccc1S3)OCCO2)c1cc(C(=N)N)cs1 [Compound 271, (S)—N—((R)-1-(4-carbamimidoylthiophen-2-yl)ethyl)-7-((phenoxathiine-3-carbonyl)glycyl)-1,4-dioxa-7-azaspiro[4.4]nonane-8-carboxamide]
> 7.00		C[C@@H](NC(=O)[C@@H]1C[C@@H](S(C)(=O)=O)CN1C(=O)CNC(=O)c1ccc2[nH]c3ccccc3c2c1)c1cc(C(=N)N)cs1 [Compound 340, N-(2-((2S,4R)-2-(((R)-1-(4-carbamimidoylthiophen-2-yl)ethyl)carbamoyl)-4-(methylsulfonyl)pyrrolidin-1-yl)-2-oxoethyl)-9H-carbazole-3-carboxamide]
> 7.00		CCCCCCOC(=O)/N=C(/N)c1csc([C@@H](C)NC(=O)[C@@H]2C[C@](F)(CF)CN2C(=O)CNC(=O)c2ccc3c(c2)-c2ccccc2C3(F)F)c1 [Compound 253, hexyl ((E)-amino(5-((R)-1-((2S,4R)-1-((9,9-difluoro-9H-fluorene-3-carbonyl)glycyl)-4-fluoro-4-(fluoromethyl)pyrrolidine-2-carboxamido)ethyl)thiophen-3-yl)methylene)carbamate]
> 7.00		C[C@@H](NC(=O)[C@@H]1C[C@]2(CN)C[C@@H]2N1C(=O)CNC(=O)c1ccc2c(c1)-c1ccccc1C2(F)F)c1cc(C(=N)N)cs1 [Compound 303, (1S,3S,5S)-5-(aminomethyl)-N—((R)-1-(4-carbamimidoylthiophen-2-yl)ethyl)-2-((9,9-difluoro-9H-fluorene-3-carbonyl)glycyl)-2-azabicyclo[3.1.0]hexane-3-carboxamide]
> 7.00		CC(=O)NCCNC[C@@]1(F)C[C@@H](C(=O)N[C@H](C)c2cc(C(=N)N)cs2)N(C(=O)CNC(=O)c2ccc3c(c2)-c2ccccc2C3(F)F)C1 [Compound 269, (2S,4S)-4-(((2-acetamidoethyl)amino)methyl)-N—((R)-1-(4-carbamimidoylthiophen-2-yl)ethyl)-1-((9,9-difluoro-9H-fluorene-3-carbonyl)glycyl)-4-fluoropyrrolidine-2-carboxamide]
> 7.00		C[C@@H](NC(=O)[C@@H]1CC(=C(F)F)CN1C(=O)CNC(=O)c1ccc2c(c1)-c1ccccc1C2(F)F)c1cc(C(=N)N)cs1 [Compound 270, (S)—N—((R)-1-(4-carbamimidoylthiophen-2-yl)ethyl)-1-((9,9-difluoro-9H-fluorene-3-carbonyl)glycyl)-4-(difluoromethylene)pyrrolidine-2-carboxamide]
